These are literature values, as cited in patent US8173361B2, “Method of determining metabolism of a test agent” (The General Hospital Corporation, priority 2003, dated 2012).

Each structure is given as a SMILES string.

For the data set the following is noted: treatment of chronic hepatitis B; clinical tests suspended.

As to `O=c1[nH]c(=O)n([C@@H]2O[C@H](CO)[C@@H](O)[C@@H]2F)cc1I` [fialuridine], the “drug-related toxicity in clinical tests” value is “drug-related liver failure leading to death in some patients”.
